Article PMC2362861, “Potent interaction of flavopiridol with MRP1” (British Journal of Cancer, 1999)
Where two headings read alike, the source gives them in different places.

Columns and labels:
[1] = molecular target: T1, MRP1 ATPase activity (Homo sapiens, UniProt P33527); experiment: ATPase activity of GLC4/ADR plasma membranes (colourimetric inorganic phosphate); assay type: biochemical
T1 construct: plasma membrane vesicles prepared from the MRP1 overexpressing cell line GLC4/ADR; endogenous in cells; host or cells: GLC4/ADR (adriamycin-selected human small-cell lung cancer subline); plasma membrane vesicles
Text: One form of cellular resistance, directed against a wide spectrum of natural agents, is referred to as multidrug resistance (MDR). […] The ATP-dependent transport of anticancer drugs out of tumour cells that express MDR proteins may at least theoretically lead to impaired treatment outcome of patients. […] 1-Chloro-2,4-dinitrobenzene (CDNB) was from Sigma (St Louis, MO, USA). […] The isoflavonoid genis- tein was from ICN Biomedicals (Zoetermeer, The Netherlands). […] The (iso)flavonoids were dissolved as a stock solution of 40 mM in dimethyl sulphoxide (DMSO; Across Chimica, Belgium) and stored at -20C. Before experiments, 1:1 dilutions were made in ethanol, followed by a dilution in ethanol/water (1: 3; v/v) to the appropriate concentrations. The maximal concentration of DMSO and ethanol, which was also added to the controls, was 0.5% (v/v). Membrane filters OE67 were from Schleicher and Schuell (Dassel, Germany). Doxorubicin hydrochloride was from Laboratoire Roger Bellon (France). […] S1(MRP1) cells were cultured in the presence of G418 until 2-10 days before experiments. […] Cells were harvested by centrifugation (275 g, 5 min) and washed twice in phosphate-buffered saline. Subsequently, the cells were incubated in 100 mM potassium chloride (KCl), 5 mM magnesium chloride (MgCl2 ), 1 mM phenylmethylsulphonyl fluoride and 50 mM HEPES-KOH (pH 7.4) for 1 h at 0C, in order to allow the cells to swell. Then the cells were ultrasonicated at 20% of the maximum power of an MSE sonicator (Soniprep 150) for three bursts of 15 s. The suspension was centrifuged at 1500 g for 10 min. […] After centrifugation at 100 000 g for 60 min the interface was removed and washed in 100 mM KC1-50 mM HEPES-5 mM MgCl2 buffer (pH 7.4). The final membrane preparations were stored at -80C at a protein concentration of ~ 4 mg ml-1 . […] Vesicles were incubated in KCl-HEPES buffer (pH 7.4) at 37C (protein concentration ~ 0.25 mg ml-1 ), in the presence of 10 mM MgCl2 with or without 1 mM ATP and tritium-labelled DNP-SG. The reaction was stopped by adding ice-cold KCl-HEPES buffer. After rapid filtration, the filters were washed twice with KCl-HEPES buffer. The radioactivity on the filters was measured by liquid scintillation counting. […] Plasma membranes were incubated for 1 h in KCl-HEPES buffer (pH 7.4) at 37C, in the presence of 1 mM EGTA, 1 mM sodium azide and 0.1 mM ouabain, with or without 1 mM ATP. […] Plasma membranes from GLC4 cells (black bars) and GLC4 /ADR cells (white bars) were incubated with 10 nM DNP-SG in the absence or presence of the MIB6 antibody (MIB6) (10 g ml-1 ) or an MRP1 control antibody (10 g ml-1 ). […] In short, anti-MRP1 antibodies were tested for their capacity to inhibit DNP-SG transport into GLC4 /ADR inside-out plasma membrane vesicles.

[2] = tested on: GLC4/ADR cells; experiment: Steady-state cellular [3H]daunorubicin accumulation in GLC4/ADR cells; assay type: cell-based, human
[3] = during continuous infusion, ref Senderowicz et al, 1998, Stinson et al; cited from earlier work
[4] = tested on: GLC4; experiment: Growth inhibition assay, GLC4; assay type: cell-based, human; details: for IC50: Homo sapiens
[5] = tested on: GLC4/ADR; experiment: Growth inhibition assay, GLC4/ADR; assay type: cell-based, human; details: for IC50: Homo sapiens, GLC-4/ADR
[6] = tested on: GLC4 cells; experiment: Steady-state cellular [3H]daunorubicin accumulation in GLC4 cells; assay type: cell-based, human; details: GLC4; (iso)flavonoid 50 µM (μM); 0.5 M DNR, 75 min
[7] = tested on: cyclin-dependent kinases; set-up: method as in Losiewicz et al, 1996; details: ref Losiewicz et al, 1996; cited from earlier work
[8] = tested on: SW1573; experiment: Growth inhibition assay, SW1573; assay type: cell-based; details: Homo sapiens, SW1573, 72 h, read-out: IC50 value
[9] = tested on: S1(MRP); experiment: Growth inhibition assay, S1(MRP); assay type: cell-based, human
[10] = tested on: S1(1.1); experiment: Growth inhibition assay, S1(1.1); assay type: cell-based; details: Homo sapiens, 72 h, read-out: IC50 value

T1 sequence (P33527 whole entry): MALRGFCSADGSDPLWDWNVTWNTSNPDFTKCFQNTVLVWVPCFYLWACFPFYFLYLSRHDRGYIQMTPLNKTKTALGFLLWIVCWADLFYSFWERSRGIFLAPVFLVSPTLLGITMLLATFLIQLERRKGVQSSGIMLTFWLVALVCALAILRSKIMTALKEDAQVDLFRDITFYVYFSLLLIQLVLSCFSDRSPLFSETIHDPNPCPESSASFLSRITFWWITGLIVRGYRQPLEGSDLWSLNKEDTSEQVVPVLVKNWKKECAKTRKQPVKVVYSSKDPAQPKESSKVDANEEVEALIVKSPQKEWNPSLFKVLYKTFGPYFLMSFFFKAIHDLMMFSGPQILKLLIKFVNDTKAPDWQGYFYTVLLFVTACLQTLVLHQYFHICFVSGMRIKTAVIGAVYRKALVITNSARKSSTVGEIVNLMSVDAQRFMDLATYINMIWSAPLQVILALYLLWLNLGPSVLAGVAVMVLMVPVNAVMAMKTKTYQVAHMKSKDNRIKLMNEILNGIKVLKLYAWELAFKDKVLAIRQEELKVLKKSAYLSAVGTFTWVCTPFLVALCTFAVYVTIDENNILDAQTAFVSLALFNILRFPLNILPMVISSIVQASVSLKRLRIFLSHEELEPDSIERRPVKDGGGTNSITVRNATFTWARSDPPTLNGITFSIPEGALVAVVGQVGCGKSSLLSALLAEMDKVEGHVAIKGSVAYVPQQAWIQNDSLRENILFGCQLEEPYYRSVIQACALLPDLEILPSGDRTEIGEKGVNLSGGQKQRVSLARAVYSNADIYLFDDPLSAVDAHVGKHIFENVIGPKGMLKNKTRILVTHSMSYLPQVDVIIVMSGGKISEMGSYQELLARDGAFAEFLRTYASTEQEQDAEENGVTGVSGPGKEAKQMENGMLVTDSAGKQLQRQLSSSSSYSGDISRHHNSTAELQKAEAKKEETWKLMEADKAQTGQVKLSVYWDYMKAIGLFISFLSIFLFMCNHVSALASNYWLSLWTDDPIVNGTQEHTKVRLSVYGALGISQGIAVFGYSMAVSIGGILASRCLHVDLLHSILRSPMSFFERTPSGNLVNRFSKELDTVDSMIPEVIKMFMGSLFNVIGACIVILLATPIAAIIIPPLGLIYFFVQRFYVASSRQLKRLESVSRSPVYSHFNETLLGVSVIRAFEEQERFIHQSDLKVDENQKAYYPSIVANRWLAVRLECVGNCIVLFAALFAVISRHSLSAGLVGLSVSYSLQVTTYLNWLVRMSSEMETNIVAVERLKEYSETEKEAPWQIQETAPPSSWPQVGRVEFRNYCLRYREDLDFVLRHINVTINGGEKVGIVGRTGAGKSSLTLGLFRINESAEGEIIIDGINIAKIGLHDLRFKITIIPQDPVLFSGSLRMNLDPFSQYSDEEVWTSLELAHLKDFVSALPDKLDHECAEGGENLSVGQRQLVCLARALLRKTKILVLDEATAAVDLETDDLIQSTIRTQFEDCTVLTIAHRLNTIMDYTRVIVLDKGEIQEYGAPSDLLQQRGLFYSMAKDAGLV

In the case of `CN1CC[C@H](c2c(O)cc(O)c3c(=O)cc(-c4ccccc4Cl)oc23)[C@H](O)C1` [Flavopiridol, (-)cis-5,7-dihydroxy-2-(2-chlorophenyl)-8[4-(3-hydroxy-1-methyl)-piperidinyl]-4H-benzopyran-4-one], the Concentrations at which ATPase activity of GLC4/ADR membranes was significantly induced ([1]; GLC4/ADR membranes, lowest effective concentration and higher) is reported as ≥ 1 µM, the “Effect of GSH on (iso)flavonoid-induced MRP1 ATPase activity” value ([1]; GSH 0.5 mM or 5 mM, data not shown) is reported as “no synergistic stimulation” and the “Effect on accumulation of DNR in GLC4/ADR cells” value ([2]; 50 µM (μM)) is reported as “increased the accumulation of DNR”. For the same molecule, the “Lowest concentration tested, giving a significant increase of DNR accumulation” value ([2]; GLC4/ADR) was 100 nM, the “Difference of DNR accumulation from control (P < 0.05)” value ([2]; GLC4/ADR, all tested flavopiridol concentrations (0.1, 1, 5), Figure 6) was “gave a significant difference” and the “Concentrations at which daunorubicin accumulation is affected” value ([2]; GLC4/ADR, only tested compound active in this range) was “below 1 μM”. The “Steady-state plasma concentrations in humans” value [3] was 200 to 300 nM, the IC50 ([4]; GLC4, 72 h, read-out: IC50 value) was 45 nM and the IC50 ([4]; GLC4, read-out: IC50 value) was > 1000 nM. For the same molecule, the IC50 ([4]; GLC4, read-out: IC50 values) was > 1000 nM, the “Growth inhibitory potency compared to genistein and kaempferol” value ([4]; Table 3, all cell lines) was “about 100 fold” and the “Resistance compared to GLC4” value ([5]; GLC4/ADR vs GLC4) was 2.8 times. The IC50 ([5]; 72 h, read-out: IC50 value) was 128 nM, the IC50 ([5]; read-out: IC50 value) was > 1000 nM and the IC50 ([5]; read-out: IC50 values) was > 1000 nM. For the same molecule, the “Accumulation of daunorubicin, mean percentages of control (set at 100%)” value [6] was 104%, the “Potency as inhibitor of cyclin-dependent kinases compared to genistein and quercetin” value [7] was 250 fold and the IC50 [8] was 85 nM. The IC50 ([9]; Homo sapiens, S1(MRP), 72 h, read-out: IC50 value) was 130 nM, the “Resistance compared to SW1573” value ([9]; S1(MRP) vs SW1573) was 1.5 times and the IC50 [10] was 93 nM.
